Assay [1] deals with WAS−/−/WASp R86C Jurkat T-cells. The experiment in a line: Lymphocyte migration on ICAM-1/SDF-1α, WAS−/−/WASp R86C cells. Type of assay: cell-based, human. Here is the method:
WASp knockout Jurkat T-cell lines that express only exogenous YFP-WASp R86C (WAS^−/−/WASp R86C) or Y107C (WAS^−/−/WASp Y107C) were pretreated with SMC #34 in comparison to cells treated with the control. Cells that completely lack WASp expression (WAS^−/−) were also treated with the control. Cellular migration was tracked over a 20-min period on ICAM-1/SDF-1α-coated cover glasses, as described in Experimental procedures.
Approximately 1×10^5 lymphocytes were seeded over chambered coverslips (LabTek) pre-coated with 6 μg/ml ICAM-1 and 2 μg/ml SDF-1α. Cells were incubated at 37° C., 5% CO2 and DIC images were acquired with the Zeiss Observer Z1 inverted microscope every 5 s for 20 min under a 20× objective lens using Zen software. The random movement (Displacement and velocity) of the cells was automatically tracked and analyzed using TrackMate plugin of ImageJ software. An individual trace was assigned to each of the analyzed cells.

The target of a further assay is T1, N-WASp (Homo sapiens, UniProt O00401).
T1 construct: expressed in transfected cells; host or cells: HEK 293T, transient transfection; unpurified cell lysate
The experiment in a line: MST binding, YFP-N-WASp in HEK 293T cell lysate. Here is the method: Diluted cell lysates of YFP-WASp/N-WASp/WAVE2-expressing HEK 293T cells were incubated with serially-diluted (100 μM-3 nM) SMCs. The mixed lysates and SMCs were then loaded into standard-treated Monolith™ capillaries and the fluorescence of the samples was measured by the Monolith NT.115 instrument at 60% MST power. Binding curves of WASp with SMC #6 (FIG. 3A), SMC #30 (FIG. 3B), SMC #33 (FIG. 3C), SMC #34 (FIG. 3D) and Y-27632 (FIG. 3E) or of N-WASp (FIG. 3F) or WAVE2 (FIG. 3G) with SMC #34 were generated by the NanoTemper Analysis 2.231 software. Normalized fluorescence (hot fluorescence/initial fluorescence) is plotted as a function of SMC concentration. […]
YFP-tagged WASp was obtained from cell lysates of Human Embryonic Kidney (HEK) 293T, transiently transfected with YFP-WASp/WAVE2/N-WASp by DNA-calcium phosphate co-precipitation as previously described (Reicher et al, 2012). […] After loading into the instrument (Monolith NT.115, NanoTemper), the samples were measured by standard protocols at 60% MST power. […] KD values were determined using the NanoTemper analysis software (NT Analysis 1.5.37 or 2.2.31).
Following this in silico screening, the inventors identified eight SMCs (#6, #23, #24, #25, #30, #32, #33, #34, see Table 1). […] The SMCs that specifically bind the degradation pocket of WASp were further evaluated by the inventors.

T1 sequence (O00401 whole entry, species assumed): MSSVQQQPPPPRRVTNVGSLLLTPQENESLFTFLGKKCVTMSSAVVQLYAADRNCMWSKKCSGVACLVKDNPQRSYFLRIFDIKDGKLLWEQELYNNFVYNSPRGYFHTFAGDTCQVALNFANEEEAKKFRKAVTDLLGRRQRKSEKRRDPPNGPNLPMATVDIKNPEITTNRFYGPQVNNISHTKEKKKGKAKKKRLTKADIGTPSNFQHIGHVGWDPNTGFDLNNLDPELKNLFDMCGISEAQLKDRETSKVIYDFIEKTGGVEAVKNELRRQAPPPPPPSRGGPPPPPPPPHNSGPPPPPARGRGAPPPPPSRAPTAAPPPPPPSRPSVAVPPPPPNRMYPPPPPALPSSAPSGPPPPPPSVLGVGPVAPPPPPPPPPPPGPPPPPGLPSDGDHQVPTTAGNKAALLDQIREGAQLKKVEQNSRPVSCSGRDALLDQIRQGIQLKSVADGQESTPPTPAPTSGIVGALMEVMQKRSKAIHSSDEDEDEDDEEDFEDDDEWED

As for `CC1CCCC(C)N1C(=O)CSc1nnc(COc2cccc3cccnc23)o1` (stereo not drawn) [SMC #34, 1-(2,6-dimethylpiperidin-1-yl)-2-[[5-(quinolin-8-yloxymethyl)-1,3,4-oxadiazol-2-yl]sulfanyl]ethanone], the migration entry in assay [1] (WAS−/−/WASp R86C cells, vs control) is recorded as “significantly increased”. The molecule also returned a mean cell displacement in assay [1] (WAS−/−/WASp R86C, 20 min, mean ± SE) of 53.65±4.88. In addition, the “binding to N-WASp” value on N-WASp is “no binding”.

These data come from patent publication US12150940B2, “WASp-protecting small molecules, compositions, methods and uses thereof in the treatment of innate and acquired immune-related disorders or conditions” (BAR ILAN UNIVERSITY, priority 2016, dated 2024).
